Results from patent US20060247223A1, “Non-imidazole alkylamines as histamine H3- receptor ligands and their therapeutic applications” (priority 1998, published 2006).
Counter-ions that a name gives are not always drawn.

Compound | melting point
CCN(CC)CCCCCCOc1ccc(C#N)cc1 (as salt: oxalate) [Example 61, N-[6-(4-cyanophenoxy)-hexyl]-diethylamine] | 110 to 112 °C
CCCN(CCC)CCCOc1ccc(C#N)cc1 (as salt: oxalate) [Example 62, N-[3-(4-cyanophenoxy)-propyl]-dipropylamine] | 127 to 128 °C
CCN(CC)CCCOc1ccc(/C(C)=N/O)cc1 (as salt: oxalate) [Example 64, 4-(3-diethylaminopropoxy)-acetophenone-oxime] | 99 to 100 °C
CC(=O)c1ccc(OCCCN2CCCCC2)cc1 (as salt: oxalate) [Example 65, 1-[3-(4-acetylphenoxy)-propyl]-piperidine] | 159 to 160 °C
CC(=O)c1ccc(OCCCN2CCCC(C)C2)cc1 (centres unmarked) (as salt: oxalate) [Example 66, 1-[3-(4-acetylphenoxy)-propyl]-3-methyl-piperidine] | 143 to 144 °C
CC(=O)c1ccc(OCCCN2CCC(C)CC2)cc1 (as salt: oxalate) [Example 68, 1-[3-(4-acetylphenoxy)-propyl]-4-methyl-piperidine] | 160 to 161 °C
CC(=O)c1ccc(OCCCN2C[C@H](C)C[C@H](C)C2)cc1 (as salt: oxalate) [Example 70, 1-[3-(4-acetylphenoxy)-propyl]-3,5-cis-dimethyl-piperidine] | 174 to 175 °C
O=Cc1ccc(OCCCN2CCCCC2)cc1 (as salt: oxalate) [Example 71, 1-[3-(4-formylphenoxy)-propyl]-piperidine] | 152 to 153 °C
CC(C)C(=O)c1ccc(OCCCN2CCCCC2)cc1 (as salt: oxalate) [Example 72, 1-[3-(4-isobutyrylphenoxy)-propyl]-piperidine] | 121 to 122 °C
CCCC(=O)c1ccc(OCCCN2CCCCC2)cc1 (as salt: oxalate) [Example 74, 1-[3-(4-buyrylphenoxy)propyl]piperidine] | 138 to 139 °C
CC(=O)c1ccc(OCCCN2CC=CCC2)cc1 (as salt: oxalate) [Example 75, 1-[3-(4-acetylphenoxy)-propyl]-1,2,3,6-tetrahydropyridine] | 143 to 144 °C
CC(=O)c1ccc(OC[C@H](C)CN2CCCCC2)cc1 (as salt: oxalate) [Example 77, 1-[3-(4-acetylphenoxy)-2-R-methylpropyl]piperidine] | 149 to 151 °C
CC(=O)c1ccc(OCC(C)CN2CCCCC2)cc1 (centres unmarked) (as salt: oxalate) [Example 80, 1-[3-(4-acetylphenoxy)-2-S-methylpropyl]piperidine] | 148 to 150 °C
CC1CCCN(CCCOc2ccc([N+](=O)[O-])cc2)C1 (centres unmarked) (as salt: oxalate) [Example 83, 1-[3-(4-nitrophenoxy)propyl]-3-methylpiperidine] | 172 to 174 °C
CC1CCCCN1CCCOc1ccc([N+](=O)[O-])cc1 (centres unmarked) (as salt: oxalate) [Example 85, 1-[3-(4-nitrophenoxy)propyl]-2-methylpiperidine] | 151 to 153 °C
CC1CCN(CCCOc2ccc([N+](=O)[O-])cc2)CC1 (as salt: oxalate) [Example 86, 1-[3-(4-nitrophenoxy)propyl]4-methylpiperidine] | 119 to 121 °C
CCC(=O)c1ccc(OCCCN2CCCC(C)C2)cc1 (centres unmarked) (as salt: oxalate) [Example 88, 1-[3-(4-propionylphenoxy)propyl]-3-methylpiperidine] | 135 to 136 °C
O=C(c1ccc(OCCCN2CCCCC2)cc1)C1CCC1 (as salt: oxalate) [Example 89, 1-[3-(4-cyclobutylcarbonylphenoxy)propyl]piperidine] | 80 to 82 °C

Compound | melting point
O=C(c1ccc(OCCCN2CCCCC2)cc1)C1CCCC1 (as salt: oxalate) [Example 90, 1-[3-(4-cyclopentylcarbonylphenoxy)propyl]piperidine] | 143 to 145 °C
C[C@@H]1C[C@H](C)CN(CCCOc2ccc(C#N)cc2)C1 (as salt: oxalate) [Example 93, 1-[3-(4-cyanophenoxy)propyl]-cis-3,5-dimethylpiperidine] | 161 to 163 °C
CCC(=O)c1ccc(OCCCN2CCC(C)CC2)cc1 (as salt: oxalate) [Example 94, 1-[3-(4-propionylphenoxy)propyl]-4-methylpiperidine] | 163 to 165 °C
CCC(=O)c1ccc(OCCCN2CCCCC2C)cc1 (centres unmarked) (as salt: oxalate) [Example 95, 1-[3-(4-propionylphenoxy)propyl]-2-methylpiperidine] | 92 to 94 °C
CCC(O)c1ccc(OCCCN2CCC(C)CC2)cc1 (centres unmarked) (as salt: oxalate) [Example 97, 1-{3-[4-(1-hydroxypropyl)phenoxy]propyl}-4-methylpiperidine] | 182 to 183 °C
CCC(=NOC)c1ccc(OCCCN2CCC(C)CC2)cc1 (as salt: oxalate) [Example 99, 1-[3-(4-propionylphenoxy)propyl]-4-methylpiperidine methoxime] | 179 to 181 °C
C[C@@H]1C[C@H](C)CN(CCCOc2ccc(C(=O)C3CC3)cc2)C1 (as salt: oxalate) [Example 102, 1-[3-(4-cyclopropylcarbonylphenoxy)propyl]-cis-3,5-dimethylpiperidine] | 130 to 132 °C
COC(=O)c1ccc(OCCCN2CCCCC2)cc1 (as salt: oxalate) [Example 103, 1-[3-(4-carbomethoxyphenoxy)propyl]piperidine] | 156 to 158 °C
CCC(=NO)c1ccc(OCCCN2CCC(C)CC2)cc1 (as salt: oxalate) [Example 107] | 157 to 160 °C
Brc1ccc(OCCCN2CCCCC2)cc1 (as salt: oxalate) [Example 108, 1-[3-(4-bromophenoxy)propyl]piperidine] | 175 to 177 °C
O=[N+]([O-])c1ccc(OCCCN2CCCCC2)cc1 (as salt: oxalate) [Example 109, 1-[3-(4-nitrophenoxy)propyl]piperidine] | 148 to 151 °C
CN(C)S(=O)(=O)c1ccc(OCCCN2CCCCC2)cc1 (as salt: oxalate) [Example 110, 1-[3-(4-N,N-dimethylsulfonamidophenoxy)propyl]piperidine] | 149 to 153 °C
CC(C)c1ccc(OCCCN2CCCCC2)cc1 (as salt: oxalate) [Example 111] | 131 to 134 °C
CCC(C)c1ccc(OCCCN2CCCCC2)cc1 (centres unmarked) (as salt: oxalate) [Example 112, 1-[3-(4-sec-butylphenoxy)propyl]pipenidine] | 133 to 136 °C
CCCc1ccc(OCCCN2CCCCC2)cc1 (as salt: oxalate) [Example 113, 1-[3-(4-propylphenoxy)propyl]piperidine] | 121 to 124 °C
CCc1ccc(OCCCN2CCCCC2)cc1 (as salt: oxalate) [Example 114, 1-[3-(4-ethylphenoxy)propyl]piperidine] | 148 to 151 °C
CC[C@@H]1CC[C@H](C)N(CCCOc2ccc(C#N)cc2)C1 (relative stereo) (as salt: oxalate) [Example 91, 1-[3-(4-cyanophenoxy)propyl]-cis-2-methyl-5-ethylpiperidine] | 158 to 159 °C
